# Measurements taken from patent US10167272B2, “Muscarinic agonists” (Heptares Therapeutics Limited, priority 2015, dated 2019).
# Read-outs that look alike come from different tables or passages of the source.
# Key:
# Format in all cases: cell-based
# [1] = target: T1, human muscarinic M4 receptor (Homo sapiens, UniProt P08173); assay: Alphascreen Surefire phospho-ERK1/2 functional assay, M4; settings: for EC50: read-out: pEC50 M4 (converted); for Emax: CHO
# T1 construct: expressed in transfected cells
# T1 sequence (P08173 1-479): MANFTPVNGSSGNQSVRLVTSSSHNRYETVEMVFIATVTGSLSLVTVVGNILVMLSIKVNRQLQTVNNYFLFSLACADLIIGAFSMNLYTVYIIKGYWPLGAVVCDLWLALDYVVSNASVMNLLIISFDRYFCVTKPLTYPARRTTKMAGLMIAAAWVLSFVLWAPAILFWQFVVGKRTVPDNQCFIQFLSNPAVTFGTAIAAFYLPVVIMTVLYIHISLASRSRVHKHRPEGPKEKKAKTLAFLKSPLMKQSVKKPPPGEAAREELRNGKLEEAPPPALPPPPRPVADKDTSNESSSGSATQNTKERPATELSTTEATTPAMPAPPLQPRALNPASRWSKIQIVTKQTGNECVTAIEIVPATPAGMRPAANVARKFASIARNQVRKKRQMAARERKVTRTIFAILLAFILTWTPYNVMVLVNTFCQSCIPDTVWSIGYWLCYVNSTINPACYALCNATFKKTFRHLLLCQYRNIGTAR
# [2] = target: T2, human muscarinic M2 receptor (Homo sapiens, UniProt P08172); assay: Alphascreen Surefire phospho-ERK1/2 functional assay, M2; settings: for EC50: CHO cells stably expressing human M2, read-out: pEC50 M2 (converted); for Emax: CHO, read-out: % Emax cf. ACh (M2), CHO cells stably expressing human M2, relative to ACh
# T2 sequence (P08172 1-466): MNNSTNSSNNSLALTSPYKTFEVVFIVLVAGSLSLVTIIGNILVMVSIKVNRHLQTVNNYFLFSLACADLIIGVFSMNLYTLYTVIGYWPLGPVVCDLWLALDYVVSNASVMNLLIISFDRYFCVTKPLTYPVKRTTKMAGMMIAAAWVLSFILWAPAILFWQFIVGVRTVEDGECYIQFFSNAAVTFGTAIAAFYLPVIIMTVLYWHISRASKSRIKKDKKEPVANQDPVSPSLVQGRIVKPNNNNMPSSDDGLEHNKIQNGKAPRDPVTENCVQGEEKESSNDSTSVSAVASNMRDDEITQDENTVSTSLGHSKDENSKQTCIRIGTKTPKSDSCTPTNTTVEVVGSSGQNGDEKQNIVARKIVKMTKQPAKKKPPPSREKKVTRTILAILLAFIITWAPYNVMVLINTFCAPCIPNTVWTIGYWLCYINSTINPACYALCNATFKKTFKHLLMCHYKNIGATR
# Procedure: (§1) ERK1/2 phosphorylation is a downstream consequence of both Gq/11 and Gi/o protein coupled receptor activation, making it highly suitable for the assessment of M1, M3 (Gq/11 coupled) and M2, M4 receptors (Gi/o coupled), rather than using different assay formats for different receptor subtypes. CHO cells stably expressing the human muscarinic M1, M2, M3 or M4 receptor were plated (25K/well) onto 96-well tissue culture plates in MEM-alpha+10% dialysed FBS. Once adhered, cells were serum-starved overnight. Agonist stimulation was performed by the addition of 5 μL agonist to the cells for 5 min (37° C.). Media was removed and 50 μL of lysis buffer added. After 15 min, a 4 μL sample was transferred to 384-well plate and 7 μL of detection mixture added.
# [3] = target: T3, human muscarinic M1 receptor (Homo sapiens, UniProt P11229); assay: Alphascreen Surefire phospho-ERK1/2 functional assay, M1; settings: phospho-ERK1/2; for EC50: read-out: pEC50 M1 (converted); for Emax: CHO, read-out: % Emax cf. ACh (M1), CHO cells stably expressing human M1; for Emax / % Emax cf. ACh (M1): relative to ACh
# T3 sequence (P11229 1-460): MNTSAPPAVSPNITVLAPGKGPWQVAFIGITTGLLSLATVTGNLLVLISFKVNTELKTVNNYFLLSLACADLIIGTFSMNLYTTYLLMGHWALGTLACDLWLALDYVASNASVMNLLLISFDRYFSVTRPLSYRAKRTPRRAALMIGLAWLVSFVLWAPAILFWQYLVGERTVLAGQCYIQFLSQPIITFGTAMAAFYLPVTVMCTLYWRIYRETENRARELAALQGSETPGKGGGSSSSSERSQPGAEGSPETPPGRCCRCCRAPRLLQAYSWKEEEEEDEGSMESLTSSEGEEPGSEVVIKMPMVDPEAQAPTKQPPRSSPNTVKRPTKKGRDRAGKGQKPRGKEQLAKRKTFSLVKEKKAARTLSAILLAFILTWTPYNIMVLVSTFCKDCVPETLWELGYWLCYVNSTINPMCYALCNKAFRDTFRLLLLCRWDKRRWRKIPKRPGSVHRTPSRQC
# Procedure: as §1
# [4] = target: T4, human muscarinic M3 receptor (Homo sapiens, UniProt P20309); assay: Alphascreen Surefire phospho-ERK1/2 functional assay, M3; settings: for EC50: read-out: pEC50 M3 (converted); for Emax: CHO
# T4 construct: expressed in transfected cells
# T4 sequence (P20309 whole entry): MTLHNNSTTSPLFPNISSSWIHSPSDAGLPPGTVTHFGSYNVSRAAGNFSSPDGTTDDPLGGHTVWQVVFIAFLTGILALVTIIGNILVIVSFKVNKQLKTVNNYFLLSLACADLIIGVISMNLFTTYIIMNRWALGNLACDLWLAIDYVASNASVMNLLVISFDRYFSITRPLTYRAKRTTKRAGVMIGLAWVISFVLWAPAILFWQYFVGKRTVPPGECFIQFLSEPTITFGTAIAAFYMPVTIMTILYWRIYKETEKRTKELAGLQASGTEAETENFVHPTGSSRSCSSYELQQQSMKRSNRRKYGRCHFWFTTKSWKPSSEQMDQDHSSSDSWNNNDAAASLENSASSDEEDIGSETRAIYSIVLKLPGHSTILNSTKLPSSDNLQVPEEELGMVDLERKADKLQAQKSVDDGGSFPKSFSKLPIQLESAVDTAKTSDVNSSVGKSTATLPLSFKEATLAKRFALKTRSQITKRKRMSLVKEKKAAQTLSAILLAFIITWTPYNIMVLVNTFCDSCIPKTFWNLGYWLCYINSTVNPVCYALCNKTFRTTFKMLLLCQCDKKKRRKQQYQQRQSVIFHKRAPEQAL
# Procedure: as §1
# [5] = CHO cells stably expressing human M4, phospho-ERK1/2
# [6] = read-out: % Emax cf. ACh (M4), CHO cells stably expressing human M4, phospho-ERK1/2, relative to ACh
# [7] = CHO cells stably expressing human M1
# [8] = CHO cells stably expressing human M3, phospho-ERK1/2
# [9] = read-out: % Emax cf. ACh (M3), CHO cells stably expressing human M3, phospho-ERK1/2, relative to ACh
# [10] = CHO cells stably expressing human M4, phospho-ERK1/2, relative to ACh
"EC50 [1, 5]","Emax [1, 6]",EC50 [2],Emax [2],"EC50 [3, 7]",Emax [3],"EC50 [4, 8]","Emax [4, 9]","pEC50 M4 [1, 5]","% Emax cf. ACh (M4) [1, 10]",pEC50 M2 ([2]; CHO cells stably expressing human M2),"% Emax cf. ACh (M2) ([2]; CHO cells stably expressing human M2, relative to ACh)","pEC50 M1 [3, 7]","% Emax cf. ACh (M1) [3, 7]","pEC50 M3 [4, 8]","% Emax cf. ACh (M3) ([4]; CHO cells stably expressing human M3, phospho-ERK1/2, relative to ACh)",Structure (SMILES),Emax ([1]; read-out: % Emax cf. ACh (M4)),Emax ([4]; read-out: % Emax cf. ACh (M3))
10 nM,46%,> 20000 nM,2%,> 20000 nM,19%,> 20000 nM,5%,,,,,,,,,CCOC(=O)N1CC2(CCC(N3CCC(N(C(C)=O)C4CC4)CC3)C2)C1 (racemic) [3-1 Racemic],,
,,,,,,,,7.4,99%,< 4.7,18%,6.2,91%,< 4.7,9%,"CCOC(=O)N1CCC2(CC(N3CCC(N(CC)C(C)=O)CC3)C2)C1 (single isomer, unassigned) [2-2 Isomer 2]",,
31.6 nM,,> 20000 nM,13%,200 nM,,> 20000 nM,6%,,93%,,,,93%,,,"CCOC(=O)N1CCC2(CC(N3CCC(N(C(C)=O)C4CC4)CC3)C2)C1 (single isomer, unassigned) [2-3 Isomer 2]",,
31.6 nM,114%,> 20000 nM,3%,200 nM,104%,> 20000 nM,9%,,,,,,,,,"CCOC(=O)N1CCC2(CC(N3CCC(N(C(=O)C(F)(F)F)C4CC4)CC3)C2)C1 (single isomer, unassigned) [2-4 Isomer 2]",,
100 nM,91%,> 20000 nM,5%,631 nM,57%,> 20000 nM,5%,,,,,,,,,"CCOC(=O)N1CCC2(CC(N3CCC(N(C(=O)CC)C4CC4)CC3)C2)C1 (single isomer, unassigned) [2-5 Isomer 2]",,
31.6 nM,98%,> 20000 nM,7%,100 nM,101%,> 20000 nM,14%,,,,,,,,,"CCOC(=O)N1CCC2(CC(N3CCC(N(C(C)=O)C4CCC4)CC3)C2)C1 (single isomer, unassigned) [2-6 Isomer 2]",,
12.6 nM,118%,> 20000 nM,16%,79.4 nM,120%,> 20000 nM,10%,,,,,,,,,"CCOC(=O)N1CCC2(CC(N3CCC(N(CC)CC(F)(F)F)CC3)C2)C1 (single isomer, unassigned) [2-7 Isomer 2]",,
20 nM,57%,> 20000 nM,6%,> 20000 nM,4%,> 20000 nM,6%,,,,,,,,,"CCOC(=O)N1CCC2(CC(N3CCC(N(CCOC)C4CC4)CC3)C2)C1 (single isomer, unassigned) [2-8 Isomer 2]",,
100 nM,92%,> 20000 nM,6%,> 20000 nM,14%,> 20000 nM,5%,,,,,,,,,"CCOC(=O)N1CCC2(CC(N3CCC(N(CC(=O)OC)C4CC4)CC3)C2)C1 (single isomer, unassigned) [2-9 Isomer 2]",,
31.6 nM,122%,> 20000 nM,11%,794 nM,42%,> 20000 nM,7%,,,,,,,,,"CCOC(=O)N1CCC2(CC(N3CCC(N(Cc4ccon4)C4CC4)CC3)C2)C1 (single isomer, unassigned) [2-10 Isomer 2]",,
126 nM,88%,> 20000 nM,5%,> 20000 nM,18%,> 20000 nM,4%,,,,,,,,,"CCOC(=O)N1CCC2(CC(N3CCC(C(C)N(C(C)=O)C4CC4)CC3)C2)C1 (single isomer, unassigned) [2-13 Isomer 2]",,
100 nM,108%,> 20000 nM,12%,2510 nM,47%,> 20000 nM,5%,,,,,,,,,"CCOC(=O)N1CCC2(CC(N3CCC(C(C)N(C(=O)CC)C4CC4)CC3)C2)C1 (single isomer, unassigned) [2-14 Isomer 2]",,
39.8 nM,91%,> 20000 nM,5%,398 nM,89%,> 20000 nM,2%,,,,,,,,,"CCOC(=O)N1CCC2(CC(N3CCC(N(C=O)CC)CC3)C2)C1 (single isomer, unassigned) [2-16 Isomer 2]",,
63.1 nM,,> 20000 nM,31%,100 nM,,> 20000 nM,58%,,118%,,,,115%,,,"CCOC(=O)N1CCC2(CC(N3CCC(N(CC(C)C)C(C)=O)CC3)C2)C1 (single isomer, unassigned) [2-19 Isomer 2]",,
39.8 nM,,> 20000 nM,60%,200 nM,,> 20000 nM,33%,,108%,,,,113%,,,"CCOC(=O)N1CCC2(CC(N3CCC(N(CC4CC4)C(C)=O)CC3)C2)C1 (single isomer, unassigned) [2-20 Isomer 2]",,
10 nM,124%,> 20000 nM,5%,398 nM,91%,> 20000 nM,17%,,,,,,,,,"CCOC(=O)N1CCC2(CC(N3CCC(N(CC(F)F)C(C)=O)CC3)C2)C1 (single isomer, unassigned) [2-24 Isomer 2]",,
,,,,,,,,,,,,,,,,"CC(=O)OCC[N+](C)(C)C [ACh, acetylcholine, reference compound]",110%,115%
316 nM,77%,,,2510 nM,72%,,,,,,,,,,,CCOC(=O)N1CC2(CC(N3CCC(N(C(C)=O)C4CC4)CC3)C2)C1 [Example 1-1],,
251 nM,103%,,,6310 nM,59%,,,,,,,,,,,"CCOC(=O)N1CC2(CC(N3CCC(N(CC)C(C)=O)CC3)C2)C1 [Example 1-2, Ethyl 6-{4-[acetyl(ethyl)amino]piperidin-1-yl}-2-azaspiro[3.3]heptane-2-carboxylate]",,
